melting point [°C] | SMILES
379 to 381 | O=C(O)c1ccc2c(=O)[nH]c(S)nc2c1
201 to 203 | Cc1ccc(N)cc1NC(=O)c1ccncc1
100 to 102 | Nc1ccn(Cc2ncccn2)n1
181 to 183 | C#CCNC(=O)NC1(C(=O)O)CCc2ccccc21 (stereo not given)
49 to 51 | COC(=O)C(Cl)c1cccc(C#N)c1 (stereo not given)
160 to 162 | CS(=O)(=O)CCC1NC(=O)NC1=O (stereo not given)
70 to 72 | Cc1cc(N)nn1-c1ccc(F)cc1
142 to 144 | Clc1nc(-c2ccccn2)nc2c1CCC2
109 to 111 | Cc1ncc(Br)c(N)n1
76 to 78 | C=CCc1cc(C(=O)OC)cc(OC)c1O
109 to 111 | Nc1nc(-c2ccco2)cs1
69 to 71 | O=C(O)c1ccc(F)c(COCC2CC2)c1
265 to 267 | CC1(c2ccc(I)cc2)NC(=O)NC1=O (stereo not given)
142 to 144 | CNCC(O)COc1ccc([N+](=O)[O-])cc1 (stereo not given)
115 to 117 | CCOC(=O)c1csc(NC)n1
117 to 119 | NC(=O)C1CC(O)CN1 (stereo not given)
189 to 191 | CC(C)=CCSCC(N)C(=O)O (stereo not given)
109 to 111 | CC1=NN(C)C(=O)C1
113 to 115 | O=C(O)CCNS(=O)(=O)c1cccc(C(F)(F)F)c1
129 to 131 | Cn1cc(Cl)cc1C(=O)O
173 to 175 | Cc1cc(N)ccc1NC(=O)c1ccco1
193 to 195 | CC(Cc1nc2ccccc2s1)(C(=O)O)c1ccccc1 (stereo not given)
132 to 134 | COc1ccc(Br)cc1CC(=O)O

melting point [°C] | SMILES
87 to 89 | CC(NC(=O)CCl)C1CC2CCC1C2 (stereo not given)
135 to 137 | COC(=O)c1c(-c2ccc(F)cc2)csc1N
139 to 141 | CC(C)C(Br)C(=O)NC1CCS(=O)(=O)C1 (stereo not given)
163 to 165 | c1ccc(OCc2nc3ccccc3[nH]2)cc1
109 to 111 | CC(C)Oc1cnc(C(=O)O)cn1
162 to 164 | O=C(O)c1cc(Cl)cc(S(=O)(=O)Cl)c1F
96 to 98 | CC1(NC(=O)CCl)CCS(=O)(=O)C1 (stereo not given)
87 to 89 | CCOC(=O)c1cnn(-c2cccc(N)c2)c1C(F)(F)F
131 to 133 | COC(=O)c1cc2ccc(C)cc2[nH]1
243 to 245 | NC(=O)c1ccc(S(N)(=O)=O)cc1
169 to 171 | C=CC(=O)NC(N)=O
57 to 59 | Clc1ccc(C(Cl)c2ccc(Cl)cc2)cc1
81 to 83 | O=[N+]([O-])c1ccc(S(=O)(=O)C(F)(F)F)cc1
260 to 262 | O=C(O)C=Cc1cncc2ccccc12
226 to 228 | Cn1cc(C(=O)O)c(-c2ccc(N)cc2)n1
149 to 151 | COC(=O)c1ccncc1O
140 to 142 | O=C(O)CCCC(=O)c1ccc(Cl)c(Cl)c1
79 to 81 | O=C(c1ccc(S(=O)(=O)Cl)cc1F)N1CCCC1
127 to 129 | CC(N)c1ccc(OCC(N)=O)cc1 (stereo not given)
171 to 173 | CCOC(=O)c1cn2c(n1)NCCC2
232 to 234 | Nc1c(Br)cc(Cl)cc1C(=O)O
49 to 51 | COc1cc(F)ccc1[N+](=O)[O-]
199 to 201 | NC(=O)COc1ccccc1C(=O)O

melting point [°C] | SMILES
255 to 257 | Cc1cccc2c(=O)[nH]cnc12
126 to 128 | COCCCn1cc(C(=O)c2cc(F)ccc2O)cc(C#N)c1=O
49 to 51 | Nc1cnn(Cc2ccc(Cl)cc2)c1
131 to 133 | CC1=NN(c2ccccc2)C(=O)C1=NO
249 to 251 | Cc1cnc2c(c1)NC(=O)CN2
70 to 72 | O=[N+]([O-])c1cc(Cc2ccccc2)ccc1O
335 to 337 | Cc1cc(=O)n2nc(N)sc2n1
193 to 195 | N=c1ccc2sc(N)nc2[nH]1
149 to 151 | COc1ccccc1-c1ccccc1C(=O)O
244 to 246 | Oc1cccc(-c2nnc3n2CCCCC3)c1
73 to 75 | CCCOc1ccc(C(F)(F)F)cc1NC(=O)CCl
160 to 162 | Nc1ccccc1NCCCn1ccnc1
128 to 130 | O=C(O)C1(c2ccccc2)CCOCC1
94 to 96 | CCN(CC)C(=O)N1CCCC(C(=O)O)C1 (stereo not given)
168 to 170 | Cc1ccc(CNC(=O)c2c[nH]nc2N)cc1
43 to 45 | CCCc1cnc(N)s1
115 to 117 | NCc1noc(-c2ccccc2)n1
264 to 266 | c1ccc2c(-c3nc4ccccc4[nH]3)cccc2c1
171 to 173 | O=C(O)CCc1nc2cc(C(F)(F)F)ccc2n(Cc2ccccc2)c1=O
274 to 276 | O=C(O)c1cnc2cc3c(cc2c1O)OCCO3
175 to 177 | CC(C)(C)OC(=O)N1CCN(C(N)=O)CC1
301 to 303 | O=C(O)CNC(=O)c1c[nH]c(=O)[nH]c1=O
81 to 83 | COC(=O)c1cc(S(=O)(=O)Cl)ccc1O

melting point [°C] | SMILES
269 to 271 | CC(=O)Nc1ccc(S(=O)(=O)NCc2ccc(C(=O)O)cc2)cc1
103 to 105 | CCC(Br)C(=O)Nc1cc(C)on1 (stereo not given)
101 to 103 | COc1ccc(Br)c(C#N)c1
97 to 99 | NCc1ccc(-n2cnc3ccccc32)nc1
146 to 148 | Nc1nc(Cc2ccc(Br)cc2)cs1
99 to 101 | Cc1ccc(-n2nc(N)cc2C)cc1
202 to 204 | CC(C)(C)OC(=O)N1CCc2c(sc(N)c2C#N)C1
74 to 76 | COc1ccc(C#N)cc1N
190 to 192 | CNc1nc2ccccc2[nH]1
94 to 96 | CCCc1cc(C(=O)O)sc1C
135 to 137 | Cn1ccnc1C(O)C(F)(F)F (stereo not given)
112 to 114 | CCNS(=O)(=O)c1ccc2c(c1)NCC2
238 to 240 | CCOc1ccc(-c2nnc(N)o2)cc1
179 to 181 | O/N=C/c1c(Cl)nc(Cl)n1-c1ccccc1
135 to 137 | O=S(=O)(c1ccccc1)c1ccc(O)cc1
97 to 99 | O=C(O)Cc1csc(-c2cccs2)n1
105 to 108 | Cc1cc(C(=O)CCC(=O)O)c(C)s1
308 to 313 | Sc1nnc(-c2ccncc2)[nH]1
180 to 182 | Cc1cc(OCC(=O)O)ccc1Cl
81 to 83 | COc1ccc(SCCC(=O)O)cc1
157 to 159 | Cn1cc(Br)c([N+](=O)[O-])n1
242 to 244 | O=C(O)c1csc(-c2cc3ccccc3o2)n1
251 to 253 | Cc1cccc(-c2nc3cc(F)ccc3[nH]2)c1O

melting point [°C] | SMILES
41 to 43 | CC1(C)CNc2ccccc2S1
128 to 130 | CC(C)C(=O)Nc1cccc(F)c1C(=O)O
116 to 118 | CCC(=CC(=O)O)c1ccc(C)cc1
89 to 91 | COc1cc(Br)c(S(=O)(=O)Cl)cc1Cl
326 to 328 | Cc1[nH]c(=O)[nH]c(=O)c1CO
121 to 123 | O=C(O)CC12CC3CC(C1)CC(C(F)(F)F)(C3)C2
216 to 218 | O=C(O)Cn1nnc(-c2ccco2)n1
100 to 102 | Cc1ccccc1SC(C(=O)O)c1ccccc1 (stereo not given)
211 to 213 | C=CC(=O)NC(=O)NC12CC3CC(CC(C3)C1)C2
75 to 77 | Cc1cccc(OCC(O)CN)c1 (stereo not given)
130 to 132 | Cc1nn(-c2ccccc2)c(CCl)c1C#N
102 to 104 | CC(=O)c1cn(-c2ccccc2)nn1
154 to 156 | O=C(CN1C(=O)CCC1=O)c1ccccc1F
176 to 178 | NC(NO)=C1C=CC=NC1=O
166 to 168 | O=C(O)c1cccnc1Oc1ccccc1Br
226 to 228 | CC(C)n1cccc1C(=O)Nc1cc(Cl)ccc1C(=O)O
99 to 101 | Cc1cccc(Cl)c1OCC(=O)O
303 to 305 | Sc1nnc(-c2ccncc2)n1C1CC1
141 to 143 | O=C(O)c1cnc2c(cnn2C2CCCC2)c1
90 to 92 | Nc1sc2c(c1C(=O)N1CCOCC1)CCCC2
254 to 257 | COc1ccc(C(=O)N2CCC(C(=O)O)CC2)c2ccccc12
117 to 119 | CC(=O)c1cccc(OCCOc2cccc(C(C)=O)c2)c1
196 to 198 | Cc1ccc(C(C)NC(=O)CCl)cc1C (stereo not given)

melting point [°C] | SMILES
131 to 133 | NNC(=O)CSc1ccccc1F
125 to 127 | COC(=O)C1=NN(c2ccccc2)C(c2ccccc2)C1 (stereo not given)
43 to 45 | COc1ncc(Cl)c(Cl)n1
172 to 174 | Cn1cc([N+](=O)[O-])ccc1=O
42 to 44 | O=S(=O)(Cl)c1cccnc1Cl
256 to 258 | Cc1cc(N)[nH]c(=O)c1
109 to 111 | O=[N+]([O-])c1cnccc1S
169 to 171 | NNc1cc(C(F)(F)F)nc(-c2ccccn2)n1
135 to 137 | O=C(O)C(Oc1ccc(Br)cc1Cl)c1ccccc1 (stereo not given)
171 to 173 | O=c1oc2ccc(O)cc2s1
51 to 53 | O=C(O)CSc1ccccc1O
97 to 99 | Nc1cccc(-c2ccc(Cl)c(Cl)c2)c1
256 to 258 | O=C1c2ccccc2C(=O)N1CCc1nn[nH]n1
267 to 269 | Cc1cc(C(=O)O)c2ccc(F)cc2n1
134 to 136 | CN(C)S(=O)(=O)c1ccc(S(=O)(=O)Cl)cc1
209 to 211 | O=C1CC(=Cc2ccc(F)cc2)C(=O)N1
63 to 65 | O=Cc1cc(-c2ccccc2)cs1
104 to 106 | COC(C)(C)C(N)=NO
198 to 200 | CCCCn1c(N)c(NCc2ccccc2OC)c(=O)[nH]c1=O
94 to 96 | Cc1cc(F)ccc1N1CCCC(Br)C1=O (stereo not given)
125 to 127 | CNc1cccc2ncccc12
231 to 233 | Cn1cc(C(=O)Nc2ccc(O)cc2)cn1

SMILES | melting point [°C]
O=[N+]([O-])CC(c1ccco1)c1c(-c2ccccc2)[nH]c2ccccc12 (stereo not given) | 127 to 129
Cc1cc(NC(=O)CCl)no1 | 182 to 190
O=C(O)c1cc2ccccc2n1Cc1ccccc1 | 197 to 199
CCCC(CN)C(=O)O (stereo not given) | 219 to 221
CCCNC(=O)NC(=O)CCl | 119 to 121
O=C1NCCN2CCCC12 (stereo not given) | 73 to 75
NCc1ccc(N2CCNCC2)cc1 | 163 to 165
COc1cc(C#N)ccc1CBr | 89 to 91
